# Laboratory results published in patent US12697316B2, “Combination therapy with acetyl-leucine and miglustat” (INTRABIO LTD., priority 2019, dated 2026).
# Legend:
# [1] = cited from earlier work
# [2] = tested on: Npc1^−/− mice; assay: Survival / life span of Npc1−/− mice; assay type: in vivo, mouse; settings: Npc1−/− mice; ADLL 0.1 g/kg/day, miglustat 600 mg/kg/day in chow; untreated Npc1−/− 87 days
# Procedure: (§1) BALBc/NPC ^h and Sandhoff mice were bred as heterozygotes to generate affected mice (Npc1^−/−, Hexb^−/−) and controls (Npc^+/+, Hexb^+/+). The mice were housed under non-sterile conditions, with food and water available ad libitum. All experiments were conducted using protocols approved by the UK Home Office Animal Scientific Procedures Act, 1986.
# (§2) ADLL and enantiomers (ADLL: Molekula #73891210, ALL: Sigma Aldrich #441511, ADL: Sigma #A0876) were administered as dry admix in powdered mouse diet (PicoLab Rodent Diet 20/5053, LabDiet) at a dose of 0.1 g/kg/day for in vivo studies. Treatment groups for in vivo study consisted of at least 5 mice per group. In vitro studies were conducted with each compound dissolved in PBS to generate a 50 mM stock solution and diluted to a 1 mM working concentration in media (DMEM High Glucose-Gibco #10566016).
# (§3) Miglustat (Monsanto/Oxford GlycoSciences) was administered as a dry solid mixed with powdered chow (600 mg/kg/day) (see above) alone or in combination with ADLL.
# The weight and activity of each mouse was recorded weekly until reaching the humane endpoint (defined as a loss of 1 g body weight within 24 h). Gait analysis was performed using CatWalk 10.5 system (Noldus) according to the manufacturer's instructions and five runs were recorded per animal at each time point. The camera was set to 40 cm below the walkway, the walkway was approximately 4 cm wide, and detection settings set to camera gain 14.05 and green intensity 0.12. Motor function was measured using an accelerating NG Rota Rod for mice (Ugo Basile) starting from 1 rpm to 10 rpm, accelerating every 30 seconds by one rpm. Bar crossing experiments on Sandhoff animals were conducted to measure motor strength and coordination. The apparatus used was modified from published studies. […] Latency to cross or fall from the bar was scored, with 120 sec, maximum, to termination of each trial. […]
# [3] = tested on: Npc1^−/− mice; assay: CatWalk automated gait analysis in Npc1−/− mice; assay type: in vivo, mouse; settings: Npc1−/− mice, gait analysis at 10 weeks of age
# Procedure: as §1, §2, §3
# The weight and activity of each mouse was recorded weekly until reaching the humane endpoint (defined as a loss of 1 g body weight within 24 h). Gait analysis was performed using CatWalk 10.5 system (Noldus) according to the manufacturer's instructions and five runs were recorded per animal at each time point. The camera was set to 40 cm below the walkway, the walkway was approximately 4 cm wide, and detection settings set to camera gain 14.05 and green intensity 0.12. Motor function was measured using an accelerating NG Rota Rod for mice (Ugo Basile) starting from 1 rpm to 10 rpm, accelerating every 30 seconds by one rpm. Bar crossing experiments on Sandhoff animals were conducted to measure motor strength and coordination. The apparatus used was modified from published studies. Briefly, a metal bar (1.2 mm width and 26 cm in length) was suspended horizontally between two wooden supports 30 cm high over a cushioned surface and animals were allowed to grasp the center of the bar with forepaws only, the tail was released, and the clock was started. Latency to cross or fall from the bar was scored, with 120 sec, maximum, to termination of each trial. A score was given to each animal between +120 and −120. If crossing time was greater than 0, then score=120−CT; if falling time was greater than 0, the score=FT−120.
structure (smiles),measurement,setting,value
"CCCCN1C[C@H](O)[C@@H](O)[C@H](O)[C@H]1CO [miglustat, 1,5-(butylimino)-1,5-dideoxy-D-glucitol]",adverse effects in the treatment subjects,"[1]; NPC first-line therapy, Champion et al. 2010",causes unwanted weight loss and gastrointestinal disturbances
same,weight loss,"[1]; known effect, through appetite suppression",known to cause weight loss through appetite suppression
same,median survival,[2],117 days
same,Stand mean,[3],significantly improved
same,hind Duty Cycle percentages,[3],showed no benefit
